Laboratory results: paper PMC8772941 (Biomedicines, 2021)
Where two headings read alike, the source gives them in different places. Marks after values point to notes of the source that are not given here.

Assays:
D2R S193A = system: D2R S193A; set-up: method as in PMID 29325769; conditions: log value from radioligand binding; cited from earlier work
D2R L94A = system: D2R L94A; set-up: method as in PMID 29325769; conditions: log values from pERK assay; cited from earlier work
GIRK1/4 = molecular target: T1, GIRK1/4 (Homo sapiens, UniProt P48544+P48549); experiment: Control: direct inhibition of GIRK currents in oocytes expressing GIRK1/4 in the absence of the D2R
T1 sequence (P48549 1-501): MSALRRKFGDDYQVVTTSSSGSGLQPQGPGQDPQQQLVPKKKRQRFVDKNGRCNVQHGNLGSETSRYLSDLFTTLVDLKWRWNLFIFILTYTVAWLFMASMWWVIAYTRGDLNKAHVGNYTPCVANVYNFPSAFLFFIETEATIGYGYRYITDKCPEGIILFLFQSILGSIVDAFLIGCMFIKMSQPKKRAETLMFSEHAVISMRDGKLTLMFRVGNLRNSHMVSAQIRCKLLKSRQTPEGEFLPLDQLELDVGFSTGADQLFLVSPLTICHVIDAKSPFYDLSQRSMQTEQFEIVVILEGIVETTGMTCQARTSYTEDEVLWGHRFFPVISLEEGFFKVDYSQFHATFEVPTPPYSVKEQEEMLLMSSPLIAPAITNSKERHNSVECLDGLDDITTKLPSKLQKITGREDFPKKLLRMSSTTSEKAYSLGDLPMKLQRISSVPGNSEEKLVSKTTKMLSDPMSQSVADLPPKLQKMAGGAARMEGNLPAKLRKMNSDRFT
T1 sequence (P48544 1-419): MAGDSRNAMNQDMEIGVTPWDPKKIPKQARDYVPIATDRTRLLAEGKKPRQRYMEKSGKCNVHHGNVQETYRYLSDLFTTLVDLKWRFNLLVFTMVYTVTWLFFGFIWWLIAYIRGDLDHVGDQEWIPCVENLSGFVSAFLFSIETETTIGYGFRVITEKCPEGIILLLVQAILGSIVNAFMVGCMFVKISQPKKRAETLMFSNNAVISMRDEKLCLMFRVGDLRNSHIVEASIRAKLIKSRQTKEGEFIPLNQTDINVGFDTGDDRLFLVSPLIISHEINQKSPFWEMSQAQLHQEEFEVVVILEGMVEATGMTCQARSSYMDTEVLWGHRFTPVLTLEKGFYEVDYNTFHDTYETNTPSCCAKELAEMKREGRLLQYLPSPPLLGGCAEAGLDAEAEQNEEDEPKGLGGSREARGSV
Procedure: Plasmids were linearized using the appropriate restriction enzymes (D2R, RGS4; XhoI and GIRK1/GIRK4; NotI), followed by in vitro transcription using the T7 mMessage mMachine kit (Ambion, Austin, TX, USA). cRNA concentration and purity were determined by spectrophotometry.
Following RNA injection and 6 days of incubation at 12 °C, electrophysiological experiments were performed on the oocytes using the parallel eight-channel, semi-automated, two-electrode voltage-clamp OpusXpress 6000A (Molecular Devices, San José, CA) [13, 14]. Continuous perfusion, mediated by Minipuls 3 peristaltic pumps (Gilson, Middleton, WI, USA), was maintained at 0.5 mL/min. Data were acquired at a membrane potential of −80 mV and sampled at 156 Hz using OpusXpress 1.10.42 (Molecular Devices) software. To increase the inward-rectifier potassium channel current at negative potentials, a high potassium concentration extracellular perfusion fluid was used (64 mM NaCl, 25 mM KCl, 0.8 mM MgCl2, 0.4 mM CaCl2, 15 mM HEPES, 1 mM ascorbic acid, adjusted to pH 7.4 with NaOH), yielding a K^+ reversal potential of about −40 mV.

D2R = conditions: in the presence of µM concentrations of DA; pre-incubation protocols; cited from earlier work
D2R E95A = system: D2R E95A; set-up: method as in PMID 29325769; conditions: log values from pERK assay; cited from earlier work
D2R V91A = system: D2R V91A; set-up: method as in PMID 29325769; conditions: log values from pERK assay; cited from earlier work
WT D2R [1] = system: WT D2R; set-up: method as in PMID 29325769; conditions: log values from pERK assay; cited from earlier work
WT D2R [2] = system: WT D2R; set-up: method as in PMID 29325769; conditions: log value from radioligand binding; cited from earlier work
D2R S194A = system: D2R S194A; set-up: method as in PMID 29325769; conditions: log values from pERK assay; cited from earlier work

## N#Cc1ccc2c(c1)CN(CC[C@H]1CC[C@H](NC(=O)c3cc4ccccc4[nH]3)CC1)CC2 [SB269,652, N-((trans)-4-(2-(7-cyano-3,4-dihydroisoquinolin-2(1H)-yl)ethyl)cyclohexyl)-1H-indole-2-carboxamide]
D2R S193A
  Negative Cooperativity of SB269,652 Interaction with DA: ↑ (1.47 ± 0.15 *) ^b
D2R L94A
  Negative Cooperativity of SB269,652 Interaction with DA: ↓ 0.70 ± 0.08
GIRK1/4
  Ligand-mediated direct inhibition of GIRK currents (>10%): not observed
D2R
  SB269,652 IC50 at the D2R in previous reports: high nM range
D2R E95A
  Negative Cooperativity of SB269,652 Interaction with DA: ↓ 0.32 ± 0.14
D2R V91A
  Negative Cooperativity of SB269,652 Interaction with DA: ↓ 0.48 ± 0.16
WT D2R [1]
  Negative Cooperativity of SB269,652 Interaction with DA: 1.23 ± 0.14
WT D2R [2]
  Negative Cooperativity of SB269,652 Interaction with DA: 0.54 ± 0.11
D2R S194A
  Negative Cooperativity of SB269,652 Interaction with DA: ↓ 0.52 ± 0.09
